This note sets out measurements from patent US20080306155A1, “METHOD FOR TREATING RENAL DISEASE” (priority 2004, published 2008).

“And” between values parts separate entries of the source, which are not always exact repeats. Equal entries are not always repeated.

What all share (assay type): cell-based, rat
Assay [1] concerns isolated glomeruli. In words: Albumin permeability (Palb) of isolated glomeruli. Conditions: 10 ng/ml. As to the method:
Measurement of Albumin Permeability (Palb): Glomeruli were isolated using the sieving method as previously described in a medium containing 5 g/dl of bovine serum albumin (BSA). See, Sharma R, et al, Kidney Intl. 58:131-136 (2000); and Savin V, et al. J. Am. Soc. Nephrol. 3:1260-1269 (1992). In each experimental condition, Palb was determined from the change in glomerular volume (•V) after exchange of the bath with medium containing 1 g/dl albumin. Palb was calculated as 1−(•Vexperimental/•Vcontrol) where glomeruli from SD rats fed a normal-salt diet were used to provide the control value for each experiment. To verify that lack of •Vs in Dahl S rats were related to changes in Palb rather than to changes in mechanical properties of glomeruli, additional studies were performed in which the glomeruli were exposed to a 5% solution of high molecular weight dextran.
In other experiments, we examined the interaction of TGF-• and 20-HETE on Palb in glomeruli isolated from SD rats and Dahl S rats fed either a LS diet or a HS diet for 4 days. Glomeruli were preincubated with vehicle or TGF-•1 (10 ng/ml) for 15 minutes at 37° C. and changes in Palb were determined. Glomeruli were also pretreated with 5, 14-20-HEDE (WIT003) (1 μmol/L; Taisho Pharmaceutical; Tokyo, Japan) (Alonso-Galicia et al., supra; and Yu et al., supra), for 15 minutes at 37° C. and the Palb response to TGF-• 1 (10 ng/ml) was redetermined. A minimum of 5 glomeruli from each rat were studied, and the experiments were performed using •5 rats per treatment group.

For assay [2], the system named is glomerular production of 20-HETE. The experiment in a line: LC/MS measurement of glomerular 20-HETE production. As to the method: Liquid Chromatography/Mass Spectroscopy measurement of glomerular 20-HETE production: Glomeruli (approximately 20 μg protein) were incubated in a 0.1 mol/L KPO4 buffer containing 1 mmol/L NADPH for 30 minutes at 37° C. in the presence and absence of TGF-•1 (10 ng/ml). Incubations were stopped by acidification with formic acid, homogenized, and the homogenate extracted with chloroform:methanol (2:1) after addition of 10 ng of internal standard, 14,15-epoxyeicosa-5(Z)-enoic-methyl sulfonylimide (EEZE). Samples were reconstituted in 50% acetonitrile, cleaned up using on online, reverse-phase high performance liquid chromatography (HPLC) trapping column, and then the HETEs and epoxyeicosatrienoic acids (EETs) in the samples were separated using an isocratic step gradient on an 18C—RP 2×250 mm microbore HPLC (BetaBasic18 150×21 3•m; Thermo Hypersil-Keystone; Bellefonte, Pa.) using a mobile phase consisting of acetonitrile:water:acetic acid (57:43:0.1) for 20 minutes to resolve the HETEs followed by acetonitrile:water:acetic acid (63:37:0.1) for 15 minutes to resolve the EETs. Samples were ionized using negative ion electrospray and the peaks eluting with a mass/charge ratio (m/z) of 319 (HETEs and EETs) or 323 (internal standard) were isolated and monitored in the selective ion mass spectroscopy (MS) mode using an Agilent LSD ion trap mass spectrometer (Agilent Technologies 1100; Santa Clara Calif.). The ratio of ion abundances in the peaks of interest (HETEs and EETs, m/z 319) versus that corresponding to the closely eluting internal standard (EEZE, m/z 323) were determined and compared with a standard curve generated over a range from 0.1 ng to 2 ng of 20-HETE and EETs with each batch of samples.

In assay [3] the test system is isolated glomeruli. In words: Albumin permeability (Palb) of isolated glomeruli. Particulars: glomeruli from Dahl S rats fed HS diet for 7 days; 10 ng/ml.
Setting [4] is: glomeruli pretreated with TGF-•1 10 ng/ml.

As to “TGF-•1: transforming growth factor-beta 1, applied to isolated glomeruli at 10 ng/ml”, the “Palb after TGF-•1” value in assay [1] (glomeruli from Dahl S rats fed HS diet for 4 days) is 0.87±0.02; in assay [1] (glomeruli from Dahl S rats fed a LS diet), 0.75±0.01; in assay [1] (glomeruli from SD rats, 15 minutes, 37° C.), 0.60±0.02 and 0.56±0.02. Further, the “glomerular production of 20-HETE” value in assay [2] (SD glomeruli with TGF-•1 10 ng/ml) is 3.4±0.5 ·g/30 minutes/mg protein. Moreover, the “formation of 15-, 12- or 5-HETE or EETs” value in assay [2] (setting [4]) was “without affecting”. In assay [2] (setting [4]), the “reduction of formation of 20-HETE” value turned out to be 97%. Moreover, in assay [3], the “effect on Palb” value is “no effect”.
